Laboratory results published in patent US20200397700A1, “GRANULAR COMPOSITION, PRODUCTION METHOD FOR GRANULAR COMPOSITION, AND DISSOLUTION PROPERTY IMPROVEMENT METHOD FOR GRANULAR COMPOSITION” (NIPPON SHINYAKU CO., LTD., priority 2018, published 2020).
Structures can show the parent of a compound that is named as a salt.

Assay: Dissolution test, Japanese Pharmacopoeia 17th Edition, paddle method, water
Format: physicochemical
Conditions: for dissolution rate of the mixture with an excipient after compression molding versus the mixture not compression molded: drug mixed with an excipient, compression molded in the same manner as in this embodiment
Procedure: With respect to the granular compositions of Examples 1 to 8, and Comparative Examples 1 to 8 prepared as described above, a dissolution test was performed. The dissolution test was performed according to the dissolution test method of the Japanese Pharmacopoeia, Seventeenth Edition. By using a dissolution testing device (NTR-6000 series, manufactured by Toyama Sangyo Co., Ltd.), the dissolution test was performed by a paddle method using water as a dissolution test liquid. At this time, the volume of the dissolution test liquid was set to 900 mL, the temperature of the dissolution test liquid was set to 37 ±0.5° C., and the paddle rotation rate was set to 50 rpm. With respect to the respective Examples and the respective Comparative Examples, the total amount was added to the dissolution test liquid, and the dissolution test liquid was sampled at 5, 10, 15, 30, 45, 60, 90, and 120 minutes after the start of the test, and filtered through a 0.45-μm filter (manufactured by Whatman GE Healthcare Biosciences), and then, the dissolution rate of Compound (I) was measured using high performance liquid chromatography.
FIGS. 5 to 9 show the time course of the dissolution rate of Compound (I) in the granular compositions of Examples 1 to 5, respectively, and also show the time course of the dissolution rate of Compound (I) in Comparative Examples 1 to 5, respectively. […] In FIGS. 5 to 11, the vertical axis represents the dissolution rate (unit: %) and the horizontal axis represents a time (unit: min). The solid lines E1 to E8 represent the cases of Examples 1 to 8, respectively, and the broken lines C1 to C8 represent the cases of Comparative Examples 1 to 8, respectively.

Structure (SMILES)	dissolution property of Compound (I) (in a granule obtained by a fluidized bed granulation method)	dissolution rate of the mixture with an excipient after compression molding versus the mixture not compression molded
CC(C)N(CCCCOCC(=O)NS(C)(=O)=O)c1cnc(-c2ccccc2)c(-c2ccccc2)n1 [Compound (I), 2-{4-[N-(5,6-diphenylpyradin-2-yl)-N-isopropylamino]butyloxy}-N-(methylsulfonyl)acetamide]	low	
CC(=O)Nc1ccc(O)cc1 [acetaminophen]		substantially equivalent
CCN(CC)C(=O)Nc1ccc(OCC(O)CNC(C)(C)C)c(C(C)=O)c1 (stereo not shown) [celiprolol hydrochloride]		substantially equivalent
COc1ccc2c(c1)c(CC(=O)O)c(C)n2C(=O)c1ccc(Cl)cc1 [indomethacin]		substantially equivalent
